Measured values: patent publication US20230181482A1, “LIPIDS FOR DELIVERY OF NUCLEIC ACID SEGMENTS” (AstraZeneca AB, priority 2021, published 2023)

How the values were obtained:
[1] = test system: Female BALB/c mice; experiment: eGFP expression in the liver at 24 hours after intravenous administration of LNP formulations to mouse (ELISA); type: in vivo; details: LNP N/P 3:1, DMPE-PEG2000
In short: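 Mice (6-8 weeks, n=4/group) received a slow IV tail-vein bolus of LNP formulation at 0.3 mg/kg. Livers were harvested 24 hours post-dose and eGFP quantified by ELISA.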

[2] = mRNA encapsulation efficiency of LNP formulations (Quant-it Ribogreen assay with Triton-X100); type: physicochemical; details: N/P ratio 3:1, DMPE-PEG2000
In short: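 LNPs of ionizable lipid/cholesterol/DSPC/polymer-lipid (50/38.5/10/1.5 mol%, 12.5 mM total lipid) formed by microfluidic mixing with eGFP mRNA in 50 mM citrate, pH 3, at 3:1 aqueous:ethanol and N/P 3:1 or 6:1. Encapsulation efficiency measured by RiboGreen with and without Triton-X100 disruption.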

[3] = LNP particle size by dynamic light scattering (Zetasizer Nano ZS); type: physicochemical; details: N/P ratio 3:1, DMPE-PEG2000
In short: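 eGFP mRNA in 50 mM citrate (from pH 3 buffer) was mixed microfluidically (Aq:EtOH 3:1, 12 mL/min) with ethanolic lipids, ionizable lipid/cholesterol/DSPC/polymer-conjugated lipid 50/38.5/10/1.5 mol %, 12.5 mM total, at N/P 3:1 or 6:1. Dynamic light scattering gave z-average diameter. Number-weighted distributions used refractive index 1.45.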

Structure (SMILES) | % EE ([2]; Table 5) [%] | <d>N (nm) ([3]; Table 5) | <d>Z (nm) ([3]; Table 5) | % EE ([2]; Table 4) [%] | <d>N (nm) ([3]; Table 4) | <d>Z (nm) ([3]; Table 4) | Liver eGFP protein (ng/g tissue) ([1]; Table 5, 0.3 mg/kg) | Liver eGFP protein (ng/g tissue) ([1]; Table 4, 0.3 mg/kg) | other results
CCCCCCCCC(C)OC(=O)CCCCCCCC(CCCCCCCC(=O)OC(CCCCCCCC)CCCCCCCC)NCC1CCOC1 (stereo not shown) [Compound 36, 1-(decan-2-yl) 17-(heptadecan-9-yl) 9-(((tetrahydrofuran-3-yl)methyl)amino)heptadecanedioate] | 96 | 57 | 73 |  |  |  | 6133.5 |  | 
CCCCCC(CCCCC)CCOC(=O)CCCCCCCC(CCCCCCCC(=O)OCCC(CCCCC)CCCCC)NCCC1CCOCC1 [Compound 7, bis(3-pentyloctyl) 9-((2-(tetrahydro-2H-pyran-4-yl)ethyl)amino)heptadecanedioate] |  |  |  |  |  |  |  |  | Liver eGFP protein (ng/g tissue) ([1]; Table 3, 0.3 mg/kg): 6526.4 ng/g tissue; % EE ([2]; Table 3): 94%; <d>N (nm) ([3]; Table 3): 54 nm; <d>Z (nm) ([3]; Table 3): 77 nm
CCCCCC(CCCCC)CCOC(=O)CCCCCCCCC(CCCCCCCCC(=O)OCCC(CCCCC)CCCCC)NCC1CCOCC1 [Compound 17, bis(3-pentyloctyl) 10-(((tetrahydro-2H-pyran-4-yl)methyl)amino)nonadecanedioate] |  |  |  | 93 | 77 | 96 |  | 6831.3 | 
CCCCCCCCC(CCCCCCCC)OC(=O)CCCCCCCC(CCCCCCCC(=O)OCC1CC1CCCCCC)NCC1COC1 (stereo not shown) [Compound 51, 1-(heptadecan-9-yl) 17-((2-hexylcyclopropyl)methyl) 9-((oxetan-3-ylmethyl)amino)heptadecanedioate] |  |  |  |  |  |  |  |  | Liver eGFP protein (ng/g tissue) ([1]; Table 6, 0.3 mg/kg): 3473.8 ng/g tissue; % EE ([2]; Table 6): 95%; <d>N (nm) ([3]; Table 6): 53 nm; <d>Z (nm) ([3]; Table 6): 67 nm
CCCCCCCCCCC(C)OC(=O)CCCCCC(CCCCCCCC(=O)OC(CCCCCCCC)CCCCCCCC)NC1CC2(COC2)C1 (stereo not shown) [Compound 56, 1-(dodecan-2-yl) 15-(heptadecan-9-yl) 7-((2-oxaspiro[3.3]heptan-6-yl)amino)pentadecanedioate] |  |  |  |  |  |  |  |  | Liver eGFP protein (ng/g tissue) ([1]; Table 6, 0.3 mg/kg): 10270.4 ng/g tissue; % EE ([2]; Table 6): 96%; <d>N (nm) ([3]; Table 6): 58 nm; <d>Z (nm) ([3]; Table 6): 73 nm
CCCCCCCCC(CC)OC(=O)CCCCCCCC(CCCCCCCC(=O)OC(CCCCCCCC)CCCCCCCC)NCC1CCOCC1 (stereo not shown) [Compound 39, 1-(heptadecan-9-yl) 17-(undecan-3-yl) 9-(((tetrahydro-2H-pyran-4-yl)methyl)amino)heptadecanedioate] | 97 | 55 | 69 |  |  |  | 3383.8 |  | 

Now from value to compound, other results behind:

% EE ([2]; Table 5) [%] | <d>N (nm) ([3]; Table 5) | <d>Z (nm) ([3]; Table 5) | % EE ([2]; Table 4) [%] | <d>N (nm) ([3]; Table 4) | <d>Z (nm) ([3]; Table 4) | Structure (SMILES) | Liver eGFP protein (ng/g tissue) ([1]; Table 5, 0.3 mg/kg) | Liver eGFP protein (ng/g tissue) ([1]; Table 4, 0.3 mg/kg) | other results
 |  |  | 94 | 50 | 69 | CCCCCCCCC(C)OC(=O)CCCCCCC(CCCCCCC(=O)OC(CCCCCCCC)CCCCCCCC)NC1CC2(COC2)C1 (stereo not shown) [Compound 25, 1-(decan-2-yl) 15-(heptadecan-9-yl) 8-((2-oxaspiro[3.3]heptan-6-yl)amino)pentadecanedioate] |  | 15961.7 | 
97 | 65 | 80 |  |  |  | CCCCCCCCC(CCCCCCCC)OC(=O)CCCCCCCC(CCCCCCCC(=O)OCCC(CC)CCCCCC)NC1CC2(COC2)C1 (stereo not shown) [Compound 44, 1-(3-ethylnonyl) 17-(heptadecan-9-yl) 9-((2-oxaspiro[3.3]heptan-6-yl)amino)heptadecanedioate] | 6582.0 |  | 
93 | 47 | 60 |  |  |  | CCCCCCCCC(C)OC(=O)CCCCCCCC(CCCCCCCC(=O)OC(CCCCCCCC)CCCCCCCC)NCC1COC1 (stereo not shown) [Compound 37, 1-(decan-2-yl) 17-(heptadecan-9-yl) 9-((oxetan-3-ylmethyl)amino)heptadecanedioate] | 1225.5 |  | 
 |  |  | 94 | 56 | 72 | CCCCCCCCC(C)OC(=O)CCCCCCCC(CCCCCCCC(=O)OC(CCCCCCCC)CCCCCCCC)NC1CC2(COC2)C1 (stereo not shown) [Compound 32, 1-(decan-2-yl) 17-(heptadecan-9-yl) 9-((2-oxaspiro[3.3]heptan-6-yl)amino)heptadecanedioate] |  | 16518.2 | 
 |  |  | 94 | 52 | 71 | CCCCCCCCCOC(=O)CCCCCCC(CCCCCCC(=O)OC(CCCCCCCC)CCCCCCCC)NC1CC2(COC2)C1 (stereo not shown) [Compound 24, 1-(heptadecan-9-yl) 15-nonyl 8-((2-oxaspiro[3.3]heptan-6-yl)amino)pentadecanedioate] |  | 748.9 | 
95 | 63 | 90 |  |  |  | CCCCCCCCC(CCCCCCCC)OC(=O)CCCCCCCC(CCCCCCCC(=O)OCC(C)CCCCCCC)NC1CC2(COC2)C1 (stereo not shown) [Compound 22, 1-(heptadecan-9-yl) 17-(2-methylnonyl) 9-((2-oxaspiro[3.3]heptan-6-yl)amino)heptadecanedioate] | 4570.6 |  | 
 |  |  | 97 | 53 | 67 | CCCCCCCCC(CCCCCCCC)OC(=O)CCCCCCCC(CCCCCCCC(=O)OCC(CCCCCCC)CCCCCCC)NC1CC2(COC2)C1 (stereo not shown) [Compound 33, 1-(heptadecan-9-yl) 17-(2-heptylnonyl) 9-((2-oxaspiro[3.3]heptan-6-yl)amino)heptadecanedioate] |  | 1056.2 | 
